Assay results: patent publication US20230174667A1 (priority 2020, published 2023)

B1: recombinant SDC4: recombinant SDC4, RnD Systems, Cat. no. 2918-SD (protein, UniProt P31431 19-198, looked up)
Syndecan-4: ESIRETEVIDPQDLLEGRYFSGALPDDEDVVGPGQESDDFELSGSGDLDDLEDSMIGPEVVHPLVPLDNHIPERAGSGSQVPTEPKKLEENEVIPKRISPVEESEDVSNKVSMSSTVQGSNIFERTEVLAALIVGGIVGILFAVFLILLLMYRMKKKDEGSYDLGKKPIYKKAPTNEFYA

Experiments:
[1] = tested on: heat-inactivated SARS-CoV-2; assay: Inhibition of SARS-CoV-2 uptake into RAW 264.7 murine macrophages (flow cytometry); type: cell-based; details: co-administered with SARS-CoV-2
NF-κB [2] = assay: Inhibition of SARS-CoV-2-induced NF-κB activation in RAW 264.7/NF-κB-luc cells (luciferase); type: cell-based, murine; details: same agents as in the RAW 264.7 uptake test
NF-κB [3] = assay: Inhibition of SARS-CoV-2-induced NF-κB activation in A549/NF-κB-luc cells (luciferase); type: cell-based, human

Molecule | inhibition of SARS-CoV-2 cellular uptake (percent inhibition, FIG. 7) [1] | inhibition of SARS-CoV-2-induced NF-κB activation (percent inhibition, FIG. 8) (NF-κB [2]) | inhibition of SARS-CoV-2-induced NF-κB activation (percent inhibition, FIG. 5) (NF-κB [3])
Cn1c2ccccc2c2c3c(c4c5ccccc5n(CCC#N)c4c21)CNC3=O [Gö 6983, Gö 6976] | significantly (p<0.05) inhibited | inhibited | significantly (p<0.05) inhibited
NC(N)=NC(=O)c1nc(Cl)c(N2CCCCCC2)nc1N [hexamethylene amiloride] | significantly (p<0.05) inhibited | inhibited | significantly (p<0.05) inhibited
PRRAR peptide: PRRAR peptide from the heparin-binding motif of the S1 subunit of the SARS-CoV-2 spike protein (Pro681-Arg685) (UniProt P0DTC2 681-685, looked up, fragment) | significantly (p<0.05) inhibited | inhibited | 
SPRRARSV peptide: SPRRARSV (Ser680-Val687, includes the PRRAR heparin-binding motif) from the S1 subunit of the SARS-CoV-2 spike protein |  |  | significantly (p<0.05) inhibited
TAT peptide: amino acid sequence YGRKKRRQRRR, synthesized by PepScan |  |  | significantly (p<0.05) inhibited
heparan sulfate | significantly (p<0.05) inhibited | inhibited | significantly (p<0.05) inhibited
polyarginine: R8, amino acid sequence RRRRRRRR, synthesized by PepScan |  |  | significantly (p<0.05) inhibited
B1 | significantly (p<0.05) inhibited | inhibited | significantly (p<0.05) inhibited
